Key:
[1] = molecular target: T1, Bromodomain-containing protein 4 (Homo sapiens, UniProt O60885); assay: Displacement of biotinylated ligand from recombinant His-tagged BRD4 bromodomain-1 (unknown origin) measured after 10 mins by TR-FRET assay
[2] = molecular target: T2, CREB-binding protein/Histone acetyltransferase p300 (Homo sapiens, UniProt Q09472+Q92793); assay: Inhibition of Halo-tagged histone H3.3 binding to CBP/EP300 (unknown origin) expressed in HEK293 cells measured after overnight incubation by luciferase reporter gene based BRET assay; assay type: cell-based
[3] = Apparent permeability of the compound across apical side to basolateral side in MDCK cells at 10 uM measured after 180 mins by LC-MS/MS analysis; assay type: ADME, cell-based, Canis lupus familiaris; settings: dog
CREB-binding protein [4] = molecular target: T3, CREB-binding protein (Homo sapiens, UniProt Q92793); assay: Displacement of biotinylated ligand from CBP (unknown origin) by TR-FRET assay
T3 sequence (Q92793 whole entry): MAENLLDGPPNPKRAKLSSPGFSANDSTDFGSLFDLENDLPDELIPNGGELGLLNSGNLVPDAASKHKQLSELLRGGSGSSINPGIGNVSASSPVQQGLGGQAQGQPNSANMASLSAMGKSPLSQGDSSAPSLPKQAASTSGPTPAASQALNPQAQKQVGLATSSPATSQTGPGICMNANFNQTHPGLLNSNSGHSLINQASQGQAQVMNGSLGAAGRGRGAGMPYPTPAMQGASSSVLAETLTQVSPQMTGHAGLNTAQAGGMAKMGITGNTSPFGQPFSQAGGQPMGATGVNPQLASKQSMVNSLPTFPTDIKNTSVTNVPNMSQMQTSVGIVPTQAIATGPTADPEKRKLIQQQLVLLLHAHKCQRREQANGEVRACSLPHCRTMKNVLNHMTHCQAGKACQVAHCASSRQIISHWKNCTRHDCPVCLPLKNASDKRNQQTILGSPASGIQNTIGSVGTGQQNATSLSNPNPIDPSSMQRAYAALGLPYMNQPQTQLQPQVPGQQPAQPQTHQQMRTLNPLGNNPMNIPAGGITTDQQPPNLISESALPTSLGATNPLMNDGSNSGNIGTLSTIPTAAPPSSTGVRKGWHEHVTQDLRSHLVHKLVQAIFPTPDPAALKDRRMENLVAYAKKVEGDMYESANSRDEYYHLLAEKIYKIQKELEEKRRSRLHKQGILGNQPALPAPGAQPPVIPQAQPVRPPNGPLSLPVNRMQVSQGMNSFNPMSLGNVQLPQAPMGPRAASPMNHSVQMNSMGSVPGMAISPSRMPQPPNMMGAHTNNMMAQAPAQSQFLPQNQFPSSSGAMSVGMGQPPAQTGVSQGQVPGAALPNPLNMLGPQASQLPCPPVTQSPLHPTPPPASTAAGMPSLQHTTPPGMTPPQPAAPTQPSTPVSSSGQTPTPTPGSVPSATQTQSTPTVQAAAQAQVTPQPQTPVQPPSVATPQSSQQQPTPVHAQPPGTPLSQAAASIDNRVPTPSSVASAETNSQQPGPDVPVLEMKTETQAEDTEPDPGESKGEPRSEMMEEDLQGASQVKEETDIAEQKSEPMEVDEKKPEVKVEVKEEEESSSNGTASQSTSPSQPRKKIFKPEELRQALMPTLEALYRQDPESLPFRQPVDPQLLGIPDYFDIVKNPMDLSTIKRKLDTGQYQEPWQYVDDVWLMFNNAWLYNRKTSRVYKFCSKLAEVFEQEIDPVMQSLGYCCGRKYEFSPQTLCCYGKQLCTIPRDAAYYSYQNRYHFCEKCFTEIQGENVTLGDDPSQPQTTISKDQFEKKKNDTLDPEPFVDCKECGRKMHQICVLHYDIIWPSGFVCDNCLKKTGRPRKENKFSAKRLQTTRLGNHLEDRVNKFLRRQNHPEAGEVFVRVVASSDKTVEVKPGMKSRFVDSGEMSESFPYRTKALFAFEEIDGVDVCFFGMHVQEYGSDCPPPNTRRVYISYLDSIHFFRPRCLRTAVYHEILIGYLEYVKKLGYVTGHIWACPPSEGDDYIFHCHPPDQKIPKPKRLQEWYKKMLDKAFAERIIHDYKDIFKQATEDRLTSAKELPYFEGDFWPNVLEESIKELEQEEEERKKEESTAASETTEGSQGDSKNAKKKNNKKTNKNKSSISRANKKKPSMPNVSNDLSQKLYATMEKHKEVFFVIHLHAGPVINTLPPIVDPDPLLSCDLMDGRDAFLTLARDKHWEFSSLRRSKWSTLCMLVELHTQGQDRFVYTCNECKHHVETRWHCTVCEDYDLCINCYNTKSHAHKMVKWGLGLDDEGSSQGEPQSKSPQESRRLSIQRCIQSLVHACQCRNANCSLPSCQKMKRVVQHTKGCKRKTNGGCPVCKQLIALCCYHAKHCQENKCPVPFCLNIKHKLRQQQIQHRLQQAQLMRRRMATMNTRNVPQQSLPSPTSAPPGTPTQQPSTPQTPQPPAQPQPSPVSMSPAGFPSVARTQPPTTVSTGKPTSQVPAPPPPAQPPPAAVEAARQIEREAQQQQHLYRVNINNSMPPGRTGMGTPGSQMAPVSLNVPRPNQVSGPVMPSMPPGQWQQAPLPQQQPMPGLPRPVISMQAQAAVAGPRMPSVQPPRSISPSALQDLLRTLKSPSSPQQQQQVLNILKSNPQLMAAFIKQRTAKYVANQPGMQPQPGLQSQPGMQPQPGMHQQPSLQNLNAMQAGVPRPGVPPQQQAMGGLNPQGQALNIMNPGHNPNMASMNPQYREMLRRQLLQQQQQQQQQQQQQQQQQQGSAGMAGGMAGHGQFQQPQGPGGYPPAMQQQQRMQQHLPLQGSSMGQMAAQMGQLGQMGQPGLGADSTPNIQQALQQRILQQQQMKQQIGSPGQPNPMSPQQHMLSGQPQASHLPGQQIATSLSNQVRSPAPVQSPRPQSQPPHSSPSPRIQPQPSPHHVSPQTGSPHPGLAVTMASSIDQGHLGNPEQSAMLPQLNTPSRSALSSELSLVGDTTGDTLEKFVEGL

CREB-binding protein [5] = molecular target: T3, CREB-binding protein; assay: Inhibition of Halo-tagged histone H3.3 binding to NanoLuc luciferase conjugated CBP (unknown origin) expressed in HEK293 cells after overnight incubation by BRET assay; assay type: cell-based
[6] = molecular target: T2, CREB-binding protein/Histone acetyltransferase p300; assay: Inhibition of CBP/EP300 (unknown origin) assessed as reduction in MYC expression by cell based assay
[7] = molecular target: T2, CREB-binding protein/Histone acetyltransferase p300; assay: Displacement of biotinylated ligand from recombinant His-tagged CBP/EP300 (unknown origin) measured after 10 mins by TR-FRET assay; assay type: protein assay
[8] = Drug metabolism in CD-1 mouse hepatocytes assessed as glucuronidation of compound at 1 uM up to 180 mins by LC-MS/MS analysis; assay type: ADME, cell-based, Hepatocyte; settings: 3 h
[9] = Clearance in mouse; assay type: ADME, organism-based; settings: in vivo
[10] = molecular target: T1, Bromodomain-containing protein 4; assay: Displacement of biotinylated ligand from BRD4 bromodomain-1 (unknown origin) by TR-FRET assay
[11] = Oral bioavailability in mouse; assay type: ADME, organism-based; settings: in vivo
[12] = Drug metabolism in human liver microsomes assessed as phenyl ring oxidation at 10 uM up to 1 hr in presence of NADPH by LC-MS analysis; assay type: ADME
[13] = Drug metabolism in human liver microsomes assessed as cleavage of cyclopropylmethyl moiety at 10 uM up to 1 hr in presence of NADPH by LC-MS analysis; assay type: ADME
[14] = Drug metabolism in mouse liver microsomes assessed as cleavage of cyclopropylmethyl moiety at 10 uM up to 1 hr in presence of NADPH by LC-MS analysis; assay type: ADME
[15] = Drug metabolism in mouse liver microsomes assessed as phenyl ring oxidation at 10 uM up to 1 hr in presence of NADPH by LC-MS analysis; assay type: ADME

Row | Structure (SMILES) | IC50 [1] | IC50 [7] | further results
1 | CCC(=O)N1CCOc2c(cc(-c3ccc(OC)c(OC)c3)cc2OC[C@H]2CCCN(C)C2)C1 |  |  | IC50 (CREB-binding protein [4]): 0.44 µM; IC50 (CREB-binding protein [5]): > 10 µM; EC50 [6]: > 10 µM
2 | CC(=O)N1CCc2[nH]nc(Nc3cccc(C(F)(F)F)c3)c2C1 | 18 µM | 0.1 µM | 
3 | CC(=O)N1CCc2c(c(Nc3cccc(-c4ccccn4)c3)nn2CC2CC2)C1 |  | 0.03 µM | IC50 [2]: 0.56 µM; Papp A→B at 3 h, 10 µM [3]: 15 ×10⁻⁶ cm/s
4 | CC(=O)N1CCc2c(c(Nc3ccc(-c4cnn(C)c4)cc3)nn2C2CCOC2)C1 (single isomer, unassigned; 57) | 8.5 µM |  | 
5 | CCc1cccc(Nc2n[nH]c3c2CN(C(C)=O)CC3)c1 | > 20 µM | 0.19 µM | 
6 | CC(=O)N1CCc2c(c(Nc3ccc(-c4cnn(C)c4)cc3)nn2CC2CC2)C1 | 6.4 µM |  | Drug metabolism [8]: Metabolite_Detected; clearance [9]: 118 mL/min/kg
7 | CC(=O)N1CCc2c(c(Nc3cccc(-c4ccnn4C)c3)nn2CC2CC2)C1 | 3.7 µM |  | Papp A→B at 3 h, 10 µM [3]: 15 ×10⁻⁶ cm/s
8 | CC(=O)N1CCc2c(c(Nc3cccc(C)c3)nn2C)C1 | > 20 µM |  | 
9 | CCCC(=O)N1CCc2[nH]nc(Nc3cccc(C)c3)c2C1 | > 20 µM | > 5 µM | 
10 | CCCOc1ccc(CCc2nc3cc(-c4c(C)noc4C)ccc3n2CCN2CCOCC2)cc1 |  |  | IC50 (CREB-binding protein [4]): 0.19 µM; IC50 [10]: 2.9 µM; IC50 (CREB-binding protein [5]): > 10 µM; EC50 [6]: 6.6 µM
11 | CC(=O)N1CCc2c(c(Nc3cccc(-c4cccnc4)c3)nn2CC2CC2)C1 | 4 µM |  | Papp A→B at 3 h, 10 µM [3]: 24 ×10⁻⁶ cm/s
12 | COc1ccc(CCc2nc3cc(-c4c(C)noc4C)ccc3n2C[C@H](C)N2CCOCC2)cc1Cl |  |  | IC50 [10]: 3.2 µM
13 | CC(=O)N1CCc2c(c(Nc3cccc(C)c3)nn2CC2CC2)C1 | 13 µM |  | 
14 | CC(=O)N1CCc2[nH]nc(Nc3cccc(F)c3)c2C1 | > 20 µM | 0.43 µM | 
15 | CC(=O)N1CCc2c(c(Nc3cccc(-c4ccncc4)c3)nn2CC2CC2)C1 | 0.87 µM |  | Papp A→B at 3 h, 10 µM [3]: 20 ×10⁻⁶ cm/s
16 | COC(=O)c1ccc(Nc2n[nH]c3c2CN(C(C)=O)CC3)cc1 | > 20 µM | 0.14 µM | 
17 | CC(=O)N1CCc2[nH]nc(Nc3ccccc3F)c2C1 | > 20 µM | 1.4 µM | 
18 | CC(=O)N1CCc2c(c(Nc3cccc(C(=O)NC(C)C)c3)nn2CC2CC2)C1 |  | 0.03 µM | bioavailability [11]: 5%; IC50 [2]: 0.96 µM; clearance [9]: 43 mL/min/kg; Papp A→B at 3 h, 10 µM [3]: 2.4 ×10⁻⁶ cm/s
19 | CC(=O)N1CCc2c(c(Nc3cccc(-c4ccn[nH]4)c3)nn2CC2CC2)C1 | 3.8 µM |  | Papp A→B at 3 h, 10 µM [3]: 6.3 ×10⁻⁶ cm/s
20 | CCCn1nc(Nc2cccc(C)c2)c2c1CCN(C(C)=O)C2 | 14 µM | 0.07 µM | 
21 | Cc1cccc(Nc2n[nH]c3c2CN(C(=O)C(F)(F)F)CC3)c1 | > 20 µM | 4.3 µM | 
22 | CCCNC(=O)c1cccc(Nc2nn(CC3CC3)c3c2CN(C(C)=O)CC3)c1 | 5.8 µM | 0.03 µM | IC50 [2]: 1.3 µM
23 | CCc1ccc(Nc2n[nH]c3c2CN(C(C)=O)CC3)cc1 | > 20 µM | 0.25 µM | 
24 | COc1cccc(Nc2n[nH]c3c2CN(C(C)=O)CC3)c1 | > 20 µM | 0.34 µM | 
25 | CC(=O)N1CCc2c(c(Nc3cccc(C)c3)nn2Cc2ccncc2)C1 | 5.9 µM |  | 
26 | CC(=O)N1CCc2c(c(Nc3cccc(-c4cnoc4)c3)nn2CC2CC2)C1 | 8.6 µM |  | 

The next lines start with results.

Row | IC50 [1] | IC50 [7] | Structure (SMILES) | further results
27 | 4.6 µM |  | CC(=O)N1CCc2c(c(Nc3cccc(-c4ccccc4)c3)nn2CC2CC2)C1 | IC50 [2]: 2.5 µM; Papp A→B at 3 h, 10 µM [3]: 26 ×10⁻⁶ cm/s
28 | > 20 µM | > 5 µM | Cc1cccc(Nc2n[nH]c3c2CN(S(C)(=O)=O)CC3)c1 | 
29 | 7.3 µM |  | CC(=O)N1CCc2c(c(Nc3cccc(C)c3)nn2Cc2ccccn2)C1 | 
30 | 18 µM | 0.11 µM | COC(=O)c1cccc(Nc2n[nH]c3c2CN(C(C)=O)CC3)c1 | 
31 | > 20 µM | 0.91 µM | CC(=O)N1CCc2[nH]nc(Nc3ccc(F)cc3)c2C1 | 
32 | 4.6 µM |  | CC(=O)N1CCc2c(c(Nc3cccc(-c4cn[nH]c4)c3)nn2CC2CC2)C1 | Papp A→B at 3 h, 10 µM [3]: 7.3 ×10⁻⁶ cm/s
33 | > 20 µM | 0.34 µM | CC(=O)N1CCc2[nH]nc(Nc3cccc(C)c3)c2C1 | 
34 | > 20 µM | 1.4 µM | CCC(=O)N1CCc2[nH]nc(Nc3cccc(C)c3)c2C1 | 
35 | > 20 µM | 1.2 µM | CC(=O)N1CCc2[nH]nc(Nc3ccccc3C)c2C1 | 
36 | 5.6 µM |  | CC(=O)N1CCc2c(c(Nc3cccc(C)c3)nn2Cc2cccnc2)C1 | 
37 | 9.8 µM | 0.18 µM | CC(=O)N1CCc2c(c(Nc3cccc(C)c3)nn2CCC2CC2)C1 | 
38 | > 20 µM |  | COCCNC(=O)c1cccc(Nc2nn(CC3CC3)c3c2CN(C(C)=O)CC3)c1 | 
39 | 7.7 µM | 0.04 µM | CCNC(=O)c1cccc(Nc2nn(CC3CC3)c3c2CN(C(C)=O)CC3)c1 | IC50 [2]: 1.5 µM
40 | 11 µM |  | CC(=O)N1CCc2c(c(Nc3ccc(-c4cnn(C)c4)cc3)nn2C2CCOC2)C1 (single isomer, unassigned; 58) | 
41 | > 20 µM | 0.16 µM | CC(=O)N1CCc2[nH]nc(Nc3cccc(OC(F)F)c3)c2C1 | 
42 | > 20 µM | 0.3 µM | CC(=O)N1CCc2[nH]nc(Nc3ccc(C)cc3)c2C1 | 
43 | > 20 µM |  | COCCn1nc(Nc2cccc(C)c2)c2c1CCN(C(C)=O)C2 | 
44 | > 20 µM | 4.1 µM | Cc1cccc(Nc2n[nH]c3c2CN(C(=O)C2CC2)CC3)c1 | 
45 | 4.2 µM |  | CC(=O)N1CCc2c(c(Nc3cccc(-c4cnn(C)c4)c3)nn2CC2CC2)C1 | Drug metabolism [12]: Metabolite_Detected; Drug metabolism [13]: Metabolite_Detected; Drug metabolism [14]: Metabolite_Detected; Drug metabolism [15]: Metabolite_Detected; Papp A→B at 3 h, 10 µM [3]: 18 ×10⁻⁶ cm/s
46 | > 20 µM |  | CC(=O)N1CCc2c(c(Nc3cccc(C)c3)nn2CCO)C1 | 
47 | 11 µM | 0.04 µM | CC(=O)N1CCc2c(c(Nc3ccc(-c4cnn(C)c4)cc3)nn2C2COC2)C1 | IC50 [2]: 1.2 µM
